# Reference: patent publication US8426447B2, “Spiro-tricyclic ring compounds as beta-secretase modulators and methods of use” (Amgen Inc., priority 2008, dated 2013)
# Columns and labels:
# BACE1 [1] = molecular target: T1, BACE1 (Homo sapiens, UniProt P56817); assay: In Vitro Enzymatic BACE FRET (Fluorescence Resonance Energy Transfer) Assay; format: biochemical
# In short: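 First, compound and enzyme sit in 0.05 M acetate (pH 4.2, 10% DMSO final, 100 uM nonionic genapol). Next, 50 nM quenched FRET peptide starts the reaction for one hour. Last, Tris neutralises the mixture before fluorescence is measured.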
# BACE1 [2] = molecular target: T1, BACE1; assay: In Vitro BACE Cell-based Assay (HEK cell assay): Aβ40 in conditioned medium of cells stably expressing Amyloid Precursor Protein, sandwich ELISA
# In short: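 HEK cells stably expressing APP were treated 24 h with compound in 10-point dose response starting at 100 or 10 μM (0.1% DMSO). Secreted Aβ40 quantified by sandwich ELISA (pAb40 capture, biotinylated 6E10 detection, europium time-resolved fluorescence), with IC50 derived from percent inhibition versus concentration.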
# [3] = HEK cells, read-out: HEK cell assay
# [4] = Table III, IC50's in uM ranges, read-out: BACE1 FRET assay
# [5] = Table III, IC50's in uM ranges, read-out: HEK cell assay
# [6] = Table IV, class symbols, read-out: BACE1 FRET assay
# [7] = Table IV, class symbols, read-out: HEK cell assay
# [8] = in vitro BACE FRET enzyme assay, IC50 class symbols, read-out: BACE1 FRET assay
# [9] = HEK cell-based assay, Aβ40 in conditioned medium, IC50 class symbols, read-out: HEK cell assay
# [10] = Table II, read-out: BACE1 FRET assay
# [11] = Table II, Aβ40, 24 h incubation, read-out: HEK cell assay
# T1 sequence (P56817 46-501, species assumed): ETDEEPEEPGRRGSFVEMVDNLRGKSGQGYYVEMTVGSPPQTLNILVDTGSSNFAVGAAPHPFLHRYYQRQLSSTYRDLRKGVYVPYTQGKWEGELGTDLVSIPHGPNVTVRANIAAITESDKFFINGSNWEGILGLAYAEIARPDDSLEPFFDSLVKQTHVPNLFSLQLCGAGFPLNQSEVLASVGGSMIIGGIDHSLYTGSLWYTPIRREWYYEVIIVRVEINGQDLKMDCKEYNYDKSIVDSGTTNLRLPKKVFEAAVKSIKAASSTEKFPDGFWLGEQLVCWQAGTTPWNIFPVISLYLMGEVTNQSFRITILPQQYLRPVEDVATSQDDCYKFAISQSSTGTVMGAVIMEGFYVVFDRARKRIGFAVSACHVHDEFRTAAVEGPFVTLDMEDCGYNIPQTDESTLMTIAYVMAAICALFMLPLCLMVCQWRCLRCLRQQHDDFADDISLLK
compound,measurement,setting,value
CC(C)(F)COc1cnc2c(c1)[C@]1(COC(N)=N1)c1cc(-c3cccnc3F)ccc1O2 [compound 449],IC50,BACE1 [1]; read-out: BACE1 FRET assay,< 0.1 µM
same,IC50,BACE1 [2]; [3],< 0.1 µM
CC1(COc2ccc3c(c2)[C@]2(COC(N)=N2)c2cc(Br)cnc2O3)COC1 [compound 164],IC50,BACE1 [1]; [4],0.1 to 1 µM
same,IC50,BACE1 [2]; [5],1 to 5 µM
NC1=NC2(CO1)c1cc(C3CC3)ccc1Oc1ccc(C3CC3)cc12 [compound 760],IC50,BACE1 [1]; read-out: BACE1 FRET assay,1 to 5 µM
same,IC50,BACE1 [2]; read-out: HEK cell assay,1 to 5 µM
NC1=N[C@]2(CO1)c1cc(-c3ccc(OC(F)F)cc3)ccc1Oc1ccc(-c3cncnc3)cc12 [compound 773],IC50,BACE1 [1]; read-out: BACE1 FRET assay,< 0.1 µM
same,IC50,BACE1 [2]; read-out: HEK cell assay,0.1 to 1 µM
NC1=N[C@@]2(CO1)c1cc(-c3cccnc3)ccc1Oc1ccc(-c3csc(C4CC4)n3)cc12 [compound 632],IC50,BACE1 [1]; [6],< 0.1 µM
same,IC50,BACE1 [2]; [7],0.1 to 1 µM
CC(C)(C)CC(=O)c1ccc2c(c1)[C@@]1(COC(N)=N1)c1cc(-c3ccc(F)nc3)ccc1O2 [150b],IC50,BACE1 [1]; [4],< 0.1 µM
same,IC50,BACE1 [2]; [5],0.1 to 1 µM
CC(C)(C)CCc1cnc2c(c1)[C@]1(COC(N)=N1)c1cc(-c3cccnc3)ccc1O2 [compound 922],IC50,BACE1 [1]; [6],< 0.1 µM
same,IC50,BACE1 [2]; [7],< 0.1 µM
COCC#Cc1ccc2c(c1)[C@]1(COC(N)=N1)c1cc(-c3cncnc3)ccc1O2 [156a],IC50,BACE1 [1]; [4],< 0.1 µM
same,IC50,BACE1 [2]; [5],< 0.1 µM
CC1(C)C=C(c2cc(F)c3c(c2)[C@]2(COC(N)=N2)c2cc(-c4cncnc4)ccc2O3)CCO1 [compound 466],IC50,BACE1 [1]; read-out: BACE1 FRET assay,< 0.1 µM
same,IC50,BACE1 [2]; [3],< 0.1 µM
CCOc1ccc(-c2cnc3c(c2)[C@]2(COC(N)=N2)c2cc(OC)ccc2O3)cn1 [compound 667],IC50,BACE1 [1]; read-out: BACE1 FRET assay,0.1 to 1 µM
same,IC50,BACE1 [2]; read-out: HEK cell assay,0.1 to 1 µM
CCOC(C)(C)C#Cc1cnc2c(c1)[C@]1(COC(N)=N1)c1cc(-c3cccnc3)ccc1O2 [compound 347],IC50,BACE1 [1]; [8],< 0.1 µM
same,IC50,BACE1 [2]; [9],< 0.1 µM
NC1=N[C@@]2(CO1)c1cc(-c3cncnc3)ccc1Oc1ccc(N3CCOC4(CCCC4)C3)cc12 [compound 462],IC50,BACE1 [1]; read-out: BACE1 FRET assay,< 0.1 µM
same,IC50,BACE1 [2]; [3],0.1 to 1 µM
"CC(C)(C)COc1ccc2c(c1)[C@]1(COC(N)=N1)c1cc(-c3cc(Cl)ccc3F)cnc1O2 [Example 91, (5R)-3-(5-chloro-2-fluorophenyl)-7-(2,2-dimethylpropoxy)spiro[chromeno[2,3-b]pyridine-5,4′-[1,3]oxazol]-2′-amine]",IC50,BACE1 [1]; [10],< 0.1 µM
same,IC50,BACE1 [2]; [11],0.1 to 1 µM
CC(C)(C)C#Cc1ccc2c(n1)[C@@]1(COC(N)=N1)c1cc(-c3cncnc3)ccc1O2 [compound 528],IC50,BACE1 [1]; read-out: BACE1 FRET assay,< 0.1 µM
same,IC50,BACE1 [2]; [3],< 0.1 µM
CC(C)(C)/C=C/c1cnc2c(c1)[C@]1(COC(N)=N1)c1cc(-c3cncnc3)ccc1O2 [compound 379],IC50,BACE1 [1]; [8],< 0.1 µM
same,IC50,BACE1 [2]; [9],< 0.1 µM
NC1=N[C@@]2(CO1)c1cnccc1Oc1ccc(-c3cccnc3)cc12 [compound 556],IC50,BACE1 [1]; [6],0.1 to 1 µM
same,IC50,BACE1 [2]; [7],0.1 to 1 µM
"CCCc1ccc2c(c1)[C@@]1(COC(N)=N1)c1cc(-c3cncnc3)ccc1O2 [Example 53, (4S)-2′-propyl-7′-(5-pyrimidinyl)spiro[1,3-oxazole-4,9′-xanthen]-2-amine]",IC50,BACE1 [1]; [10],< 0.1 µM
same,IC50,BACE1 [2]; [11],0.1 to 1 µM
NC1=N[C@@]2(CO1)c1cc(-c3cc(F)ccc3F)ccc1Oc1ncc(N3C[C@@H]4C[C@H]3CO4)cc12 [compound 453],IC50,BACE1 [1]; read-out: BACE1 FRET assay,< 0.1 µM
same,IC50,BACE1 [2]; [3],< 0.1 µM
NC1=N[C@@]2(CO1)c1cc(-c3cccnc3)ccc1Oc1ccc(N3CCOC4(CC4)C3)cc12 [compound 419],IC50,BACE1 [1]; read-out: BACE1 FRET assay,< 0.1 µM
same,IC50,BACE1 [2]; [3],< 0.1 µM
"COc1ccc2c(c1)C1(COC(N)=N1)c1cc(-c3cccnc3F)ccc1O2 (centres unmarked) [Example 16, 2′-(2-fluoro-3-pyridinyl)-7′-methoxyspiro[1,3-oxazole-4,9′-xanthen]-2-amine]",IC50,"BACE1 [1]; Table 1, read-out: BACE1 FRET assay",1 to 5 µM
same,IC50,"BACE1 [2]; Table 1, Aβ40, 24 h incubation, read-out: HEK cell assay",1 to 5 µM
CC(C)(C)COc1ccc2c(c1)[C@]1(COC(N)=N1)c1cc(C(=O)N3CCCCC3)ccc1O2 [compound 873],IC50,BACE1 [1]; [6],0.1 to 1 µM
same,IC50,BACE1 [2]; [7],0.1 to 1 µM
COC(=O)/C=C/c1ccc2c(c1)[C@@]1(COC(N)=N1)c1cc(-c3cncnc3)ccc1O2 [compound 946],IC50,BACE1 [1]; read-out: BACE1 FRET assay,0.1 to 1 µM
same,IC50,BACE1 [2]; read-out: HEK cell assay,0.1 to 1 µM
Cc1occc1-c1ccc2c(c1)[C@@]1(COC(N)=N1)c1cc(OCC(C)(C)C)ccc1O2 [compound 739],IC50,BACE1 [1]; read-out: BACE1 FRET assay,0.1 to 1 µM
same,IC50,BACE1 [2]; read-out: HEK cell assay,1 to 5 µM
COc1ccc2c(c1)[C@]1(COC(N)=N1)c1cc(NC(=O)COc3ccccc3)ccc1O2 [compound 374],IC50,BACE1 [1]; [8],0.1 to 1 µM
same,IC50,BACE1 [2]; [9],1 to 5 µM
NC1=N[C@@]2(CO1)c1cc(-c3ccc(F)cc3)ccc1Oc1ncc(C3=CCOCC3)cc12 [compound 583],IC50,BACE1 [1]; [6],< 0.1 µM
same,IC50,BACE1 [2]; [7],< 0.1 µM
COC(C)(C)C#Cc1ccc2c(c1)[C@@]1(COC(N)=N1)c1cc(C#CC(C)(C)OC)cnc1O2 [compound 934],IC50,BACE1 [1]; read-out: BACE1 FRET assay,< 0.1 µM
same,IC50,BACE1 [2]; read-out: HEK cell assay,< 0.1 µM
CC(=O)c1sccc1-c1ccc2c(c1)[C@@]1(COC(N)=N1)c1cc(OCC(C)(C)C)ccc1O2 [compound 835],IC50,BACE1 [1]; [6],1 to 5 µM
same,IC50,BACE1 [2]; [7],> 5 µM
NC1=N[C@@]2(CO1)c1cc(-c3cccnc3)ccc1Oc1cnc(CCC3CC3)cc12 [compound 695],IC50,BACE1 [1]; read-out: BACE1 FRET assay,< 0.1 µM
same,IC50,BACE1 [2]; read-out: HEK cell assay,0.1 to 1 µM
CC(C)(C)COc1ccc2c(c1)[C@@]1(COC(N)=N1)c1cc(C#N)ccc1O2 [compound 990],IC50,BACE1 [1]; read-out: BACE1 FRET assay,0.1 to 1 µM
same,IC50,BACE1 [2]; read-out: HEK cell assay,1 to 5 µM
CC(C)(O)C#Cc1cnc2c(c1)[C@]1(COC(N)=N1)c1cc(-c3cncnc3)ccc1O2 [compound 823],IC50,BACE1 [1]; [6],< 0.1 µM
same,IC50,BACE1 [2]; [7],< 0.1 µM
CC(C)(C#N)COc1ccc2c(c1)[C@]1(COC(N)=N1)c1cc(-c3cncnc3)cnc1O2 [compound 167],IC50,BACE1 [1]; [4],< 0.1 µM
same,IC50,BACE1 [2]; [5],0.1 to 1 µM
NC1=N[C@]2(CO1)c1cc(C3=CCOCC3)ccc1Oc1cnc(-c3cccnc3F)cc12 [compound 497],IC50,BACE1 [1]; read-out: BACE1 FRET assay,< 0.1 µM
same,IC50,BACE1 [2]; [3],< 0.1 µM
CC1(C)CN(c2cnc3c(c2)[C@]2(COC(N)=N2)c2cc(-c4cc(F)ccc4F)ccc2O3)CCO1 [compound 468],IC50,BACE1 [1]; read-out: BACE1 FRET assay,< 0.1 µM
same,IC50,BACE1 [2]; [3],< 0.1 µM
COC(C)(C)C#Cc1cnc2c(c1)[C@]1(COC(N)=N1)c1cc(-c3cccnc3)ccc1O2 [compound 603],IC50,BACE1 [1]; [6],< 0.1 µM
same,IC50,BACE1 [2]; [7],< 0.1 µM
CC(C)(C)COc1ccc2c(c1)[C@]1(COC(N)=N1)c1cc(N3CCCC3)ccc1O2 [compound 815],IC50,BACE1 [1]; [6],0.1 to 1 µM
same,IC50,BACE1 [2]; [7],1 to 5 µM
NC1=N[C@@]2(CO1)c1cc(Oc3ccccn3)ccc1Oc1ncc(Br)cc12 [compound 936],IC50,BACE1 [1]; read-out: BACE1 FRET assay,> 5 µM
same,IC50,BACE1 [2]; read-out: HEK cell assay,> 5 µM
CC(C)(C)COc1ccc2c(c1)[C@]1(COC(N)=N1)c1cc(-c3cccnn3)ccc1O2 [compound 649],IC50,BACE1 [1]; [6],< 0.1 µM
same,IC50,BACE1 [2]; [7],0.1 to 1 µM
CC(C)(C)COc1ccc2c(c1)C1(COC(N)=N1)c1cc(NC(=O)c3ccc(Cl)cn3)ccc1O2 (centres unmarked) [compound 522],IC50,BACE1 [1]; read-out: BACE1 FRET assay,< 0.1 µM
same,IC50,BACE1 [2]; [3],< 0.1 µM
CC(C)(C)/C=C/c1cc2c(cn1)Oc1ccc(-c3cccnc3F)cc1[C@@]21COC(N)=N1 [compound 514],IC50,BACE1 [1]; read-out: BACE1 FRET assay,< 0.1 µM
same,IC50,BACE1 [2]; [3],< 0.1 µM
"NC1=N[C@@]2(CO1)c1cc(-c3cccnc3F)ccc1Oc1cnc(-c3ccncc3)cc12 [Example 515, (5S)-7-(2-fluoro-3-pyridinyl)-3-(4-pyridinyl)spiro[chromeno[2,3-c]pyridine-5,4′-[1,3]oxazol]-2′-amine]",IC50,BACE1 [1]; BACE1 FRET assay (uM),< 0.1 µM
same,IC50,"BACE1 [2]; HEK cell assay (uM), HEK cells",< 0.1 µM
"CC(C)(C)COc1ccc2c(c1)[C@]1(COC(N)=N1)c1cc(-c3ccoc3)ccc1O2 [Example 76, (4S)-2′-(2,2-dimethylpropoxy)-7′-(3-furanyl)spiro[1,3-oxazole-4,9′-xanthen]-2-amine]",IC50,BACE1 [1]; [10],< 0.1 µM
same,IC50,BACE1 [2]; [11],1 to 5 µM
COC(C)(C)C#Cc1cnc2c(c1)[C@@]1(COC(N)=N1)c1cc(-c3ccnnc3)ccc1O2 [compound 681],IC50,BACE1 [1]; read-out: BACE1 FRET assay,1 to 5 µM
same,IC50,BACE1 [2]; read-out: HEK cell assay,> 5 µM
CC(C)(C)COc1ccc2c(c1)[C@]1(COC(N)=N1)c1cc(C3=CC4CCC3C4)ccc1O2 (some centres unmarked) [compound 730],IC50,BACE1 [1]; read-out: BACE1 FRET assay,< 0.1 µM
same,IC50,BACE1 [2]; read-out: HEK cell assay,1 to 5 µM
NC1=N[C@]2(CO1)c1cc(C3=CCOCC3)ccc1Oc1cc(F)c(O)cc12 [compound 491],IC50,BACE1 [1]; read-out: BACE1 FRET assay,0.1 to 1 µM
same,IC50,BACE1 [2]; [3],1 to 5 µM
NC1=N[C@@]2(CO1)c1cc(-c3cccnc3)ccc1Oc1cnc(N3CCC3)cc12 [compound 447],IC50,BACE1 [1]; read-out: BACE1 FRET assay,< 0.1 µM
same,IC50,BACE1 [2]; [3],0.1 to 1 µM
NC1=N[C@]2(CO1)c1cc(-c3cc4ccccc4s3)ccc1Oc1ncccc12 [compound 618],IC50,BACE1 [1]; [6],> 5 µM
same,IC50,BACE1 [2]; [7],1 to 5 µM
